Measured values: patent US7759334B2, “Soluble forms of amoxicillin and treatment of animals” (Pharmaceutical Solutions, Inc., priority 1999, dated 2010)

How the values were obtained:
STREP Suis Type 2 = test: Treatment of streptococcus Suis in nursery pigs; assay type: in vivo; conditions: 300 pigs, 3 mg/lb for 7 days from 35 days of age
Procedure: Treatment of streptococcus Suis—a group of 600 pigs was divided into 2 groups of 300. Each group was side by side in a 600 animal nursery room. Group 1 (300) was treated with 3 mg/lb of amoxicillin at 35 days of age for a period of 7 days. Group 2 (300) was treated with a placebo—citric acid/nutrisweet/strawberry flavor at 35 days of age for a period of 7 days. […] Death loss ranged from 3 to 10 percent with poor treatment results.

Hermophilus Pawasuis = test: Treatment for Hermophilus Pawasuis in finishing gilts; assay type: in vivo; conditions: 500 gilts, 3 mg/# via water
Source text: Treatment for Hermophilus Pawasuis in finishing Gilts—wt. 250#. • Marked Reduction in death loss following 5 day coarse of therapy.

[1] = cited from earlier work
Enterococci = conditions: cited from earlier work

With CC1(C)S[C@@H]2[C@H](NC(=O)[C@H](N)c3ccc(O)cc3)C(=O)N2[C@H]1C(=O)O [amoxicillin] the “Chronic cells @ 50” value (STREP Suis Type 2) was 1, the “Morbidity Number” value (STREP Suis Type 2) was 2 and the “Mortality Number” value (STREP Suis Type 2) was 0. The “Morbidity 8-142” value (Hermophilus Pawasuis) was 0, the “Mortality In 14 days” value (Hermophilus Pawasuis) was 0 and the “Mortality result in 7 days” value (Hermophilus Pawasuis) was 0. For the same molecule, the “Morbidity 0-7” value (Hermophilus Pawasuis; days 0-7) was 2, the “Peak plasma concentration relative to ampicillin” value ([1]; oral administration of the same doses) was “two to two and one-half times greater” and the “Time at which peak plasma concentrations are reached” value ([1]; oral administration) was 2 h. The “Peak concentration in plasma (average)” value ([1]; oral, 250 mg administered) was “about 4 μg/ml”.
In the case of CC1(C)S[C@@H]2[C@H](NC(=O)[C@H](N)c3ccccc3)C(=O)N2[C@H]1C(=O)O [ampicillin], the “IVIIC for ampicillin averages” value (Enterococci) is given as 1.5 mg/mL.
